ChEMBL document CHEMBL1129179, “Antimicrobial evaluation of 3,1-benzoxazin-4-ones, 3,1-benzothiazin-4-ones, 4-alkoxyquinazolin-2-carbonitriles and N-arylimino-1,2,3-dithiazoles” (1996)
Activity calls are given as the source filed them.

What was measured:
Assay type in all cases: functional, organism-based
Escherichia coli = assay: Antibacterial activity against gram-negative bacteria Escherichia coli ATCC 25922; No effect
Enterococcus faecalis = assay: Antibacterial activity against gram-positive bacteria Enterococcus faecalis ATCC 29212; No effect
Klebsiella pneumoniae = assay: Antibacterial activity against gram-negative bacteria K. pneumoniae; No effect
Listeria monocytogenes = assay: Antibacterial activity against gram-positive bacteria Listeria monocytogenes CIP 82110T; No effect
Proteus mirabilis = assay: Antibacterial activity against gram-negative bacteria Proteus mirabilis CIP 1031811; No effect
Pseudomonas aeruginosa = assay: Antibacterial activity against gram-negative bacteria Pseudomonas aeruginosa ATCC 27853; No effect
Salmonella typhimurium = assay: Antibacterial activity against gram-negative bacteria Salmonella ser. Typhimurium; No effect; conditions: Salmonella enterica subsp. enterica serovar Typhimurium
Staphylococcus aureus = assay: Antibacterial activity against gram-positive bacteria Staphylococcus aureus ATCC 9144; No effect
Streptococcus pyogenes = assay: Antibacterial activity against gram-positive bacteria Streptococcus pyogenes ATCC 19165; No effect
Salmonella enterica = assay: Antibacterial activity against gram-negative bacteria S. choleraesuis; No effect

Measured: Activity

N#Cc1nc2ccccc2c(=O)o1
inactive: all assays above

COc1cc2nc(C#N)nc(OC(C)C)c2cc1OC
inactive: all assays above

COc1cc2nc(C#N)sc(=O)c2cc1OC
inactive: all assays above

N#Cc1nc2ccccc2c(=O)s1
inactive: all assays above

CCCCOc1nc(C#N)nc2cc(OC)c(OC)cc12
inactive: all assays above

COc1nc(C#N)nc2ccccc12
inactive: all assays above

CCSc1nc(C#N)nc2cc(OC)c(OC)cc12
inactive: all assays above

COc1cc2nc(C#N)nc(OC)c2cc1OC
inactive: all assays above

N#Cc1nc2cc(Cl)ccc2c(=O)o1
inactive: all assays above

CCOc1nc(C#N)nc2cc(OC)c(OC)cc12
inactive: all assays above

CCOc1nc(C#N)nc2ccccc12
inactive: all assays above

N#Cc1nc2cc(Cl)ccc2c(=O)s1
inactive: all assays above

COc1cc2nc(C#N)oc(=O)c2cc1OC
inactive: all assays above
